Numbers after ± are expanded uncertainties.

A short description of this series: Boiling temperature at pressure P. Particulars: 101.33 kPa; Liquid; Ebulliometric method (Recirculating still).
Take `Cc1ccccc1` [toluene]: the “Boiling temperature at pressure P” value turned out to be 110.80 ± 0.05 °C.
For `CC(C)c1ccccc1` [isopropylbenzene], the “Boiling temperature at pressure P” value was determined as 152.40 ± 0.05 °C.
The same measure for `CCc1ccccc1` [ethylbenzene]: 136.20 ± 0.05 °C; for `O=S1(=O)CCCC1` [sulfolane]: 287.33 ± 0.05 °C.
